Literature values in patent publication US20240423899A1, “LONGEVITY MOISTURIZING CREAM” (Wellbeam Consumer Health Intermediate, LLC, priority 2023, published 2024).

Tested on: skin
Conditions: topical application

Compound: C=C[C@@](C)(/C=C/c1ccc(O)cc1)CCC=C(C)C [bakuchiol]
- irritating effect on the skin: no irritating effect
- lines and wrinkles, pigmentation, elasticity, firmness, and overall reduction in photo-damage: significant improvement
